Here are results for two molecules from patent publication US20050202511A1, “AMP-activated protein kinase (AMPK) inhibitor screening assay” (priority 2002, published 2005).

Several values for one entry are separate records, joined by “and”; a condition that tells them apart may be missing. Equal entries are not always repeated. Where two headings read alike, the source gives them in different places.

Experiment [1] deals with T1, AMPK-γ2 CBS1-2 (R302Q) (Homo sapiens, UniProt Q9UGJ0, R302Q).
T1 construct: the N-terminal pair (CBS1-2, residues 274-410); made in house; host or cells: E. coli BL21 (DE3)
The experiment in a line: Filter binding assay, GST-CBS domain fusion. The following applies: for Kd: single-site model. From the text: (§1) Site-directed mutagenesis was used to create the point mutation in CBS1 that causes hereditary heart disease (R302Q).
(§2) The present inventors also used site-directed mutagenesis to create four of the mutations in CBS1-2 that cause WPWS, i.e. R302Q, H383R and T400N, and Lins (which inserts a leucine residue in the linker between CBS1 and CBS2).
(§3) Various concentrations of [^14C]-AMP, [γ^32P] […] Reactions were stopped by spotting 10 ìl onto a Millipore MF Filter Membrane disc and rapidly washing under high vacuum with 1 ml of ice-cold TBS. Radioactivity was determined on the filters by scintillation counting. Non-specific binding (which was trivial) was determined by performing the assay with GST as a control, and was subtracted. […] Data were fitted to the binding models given in the text, using GraphPad Prism 3. Estimates of parameters resulting from fits are quoted in the text and Table 1±standard error, and the curves shown in figures are theoretical curves obtained using those estimates.

Experiment [2] deals with T2, AMPK-γ2 CBS1-4 (WT) (Homo sapiens, UniProt Q9UGJ0).
T2 construct: all four CBS domains (CBS1-4, residues 274-569); made in house; host or cells: E. coli BL21 (DE3)
Put plainly: Filter binding assay, GST-CBS domain fusion. To be noted: for Kd: two site Hill plot model, read-out: B0.5 (concentration giving half-maximal binding).
Text: (§4) The boundaries of the CBS domains were taken from the alignments by Bateman. Using a plasmid encoding human γ2 as the template, PCR was used to produce DNAs encoding all four CBS domains (CBS1-4, residues 274-569), the N-terminal pair (CBS1-2, residues 274-410) or the C-terminal pair (CBS3-4, residues 430-556). The PCR primers had been designed to create BamHI and XhoI sites at the ends, and these were used to insert them into a vector that created a fusion protein with glutathione-S-transferase at the N-terminal end followed by a hexaglycine spacer, with the CBS domains at the C-terminus. All three constructs were expressed in E. coli and could be purified on glutathione-Sepharose as soluble proteins of the expected sizes in good yield (CBS1-4, 61 kDa, 5 mg/L of culture; CBS1-2, 43 kDa, 2 mg/L; CBS3-4, 43 kDa, 2 mg/L).
(§5) With the H383R, T400N and R531G mutants there were large increases in B0.5 (6-, 8- and 10-fold) with no significant change in Hill coefficient.
as §3

For experiment [3], the target named is T3, AMPK-γ2 CBS1-4 (H383R) (Homo sapiens, UniProt Q9UGJ0, H383R).
T3 construct: all four CBS domains (CBS1-4, residues 274-569); made in house; host or cells: E. coli BL21 (DE3)
Put plainly: Filter binding assay, GST-CBS domain fusion. The following applies: for Kd: two site Hill plot model, read-out: B0.5. How it is done:
as §5, §3

The target of experiment [4] is T4, AMPK-γ2 CBS1-4 (Lins) (Homo sapiens, UniProt Q9UGJ0, INS350L).
T4 construct: fused on or other part: GST at the N-terminus followed by a hexaglycine spacer (pGEX-KG)
Put plainly: Filter binding assay, GST-CBS domain fusion. The following applies: for Kd: two site Hill plot model, read-out: B0.5. How it is done:
as §5, §3

Experiment [5] has as its target T5, AMPK-γ2 CBS1-4 (R531G) (Homo sapiens, UniProt Q9UGJ0, R531G).
T5 construct: all four CBS domains (CBS1-4, residues 274-569); made in house; host or cells: E. coli BL21 (DE3)
The experiment in a line: Filter binding assay, GST-CBS domain fusion. To be noted: for Kd: two site Hill plot model, read-out: B0.5. How it is done:
as §5, §3

Experiment [6] deals with T6, AMPK-γ2 CBS1-4 (T400N) (Homo sapiens, UniProt Q9UGJ0, T400N).
T6 construct: all four CBS domains (CBS1-4, residues 274-569); made in house; host or cells: E. coli BL21 (DE3)
Put plainly: Filter binding assay, GST-CBS domain fusion. The following applies: for Kd: two site Hill plot model, read-out: B0.5. How it is done:
as §5, §3

For experiment [7], the target named is T7, AMPK-γ2 CBS1-4 (R302Q) (Homo sapiens, UniProt Q9UGJ0, R302Q).
T7 construct: all four CBS domains (CBS1-4, residues 274-569); made in house; host or cells: E. coli BL21 (DE3)
Put plainly: Filter binding assay, GST-CBS domain fusion. The following applies: for Kd: two site Hill plot model, read-out: B0.5. The protocol: as §5, §3

Experiment [8] deals with T8, recombinant á1â1γ1 heterotrimer (Rattus norvegicus, UniProt P80385).
T8 construct: expressed in transfected cells; host or cells: CCL13 cells
The experiment in a line: AMPK heterotrimer kinase assay, activation by AMP. The format is biochemical. From the text: (§6) Plasmids expressing myc-tagged á1, â1 and γ1, γ2 (with or without WPWS mutations) or γ3 were expressed in CCL13 cells and the recombinant complexes immunoprecipitated using anti-myc antibodies.
(§7) PCDNA plasmids (14,25,32) encoding á1, â1 and γ1, γ2 or γ3 were expressed in CCL13 cells (25), subject to “rapid lysis”, immunoprecipitated using anti-myc antibody, and assayed as described previously (33). “Slow lysis” of CCL13 cells was as described by Stein et al (34).

Experiment [9] has as its target T9, recombinant á1â1γ3 heterotrimer (Homo sapiens, UniProt Q9UGI9).
T9 construct: expressed in transfected cells; host or cells: CCL13 cells
Put plainly: AMPK heterotrimer kinase assay, activation by AMP. The format is biochemical.
Text: as §6, §7

Experiment [10] has as its target T10, IMPDH2 CBS domain pair (wild type) (Homo sapiens, UniProt P12268).
T10 construct: For IMPDH2, DNAs encoding residues 112-232 or the full-length protein (1-514) were amplified; His tag (vector pHAT20); made in house; host or cells: E. coli
Put plainly: Displacement of bound ATP. The experiment is classed as binding.
Procedure: ATP or [^35S]SAM were incubated with GST-CBS domain fusions (1 ìM for WT, up to 20 μM for some mutants) for 10 min at 25° C. in a 20 il total volume in TBS. Reactions were stopped by spotting 10 ìl onto a Millipore MF Filter Membrane disc and rapidly washing under high vacuum with 1 ml of ice-cold TBS. Radioactivity was determined on the filters by scintillation counting. Non-specific binding (which was trivial) was determined by performing the assay with GST as a control, and was subtracted. […] Data were fitted to the binding models given in the text, using GraphPad Prism 3.

Experiment [11] has as its target T11, AMPK-γ2 CBS1-2 (Lins) (Homo sapiens, UniProt Q9UGJ0, INS350L).
T11 construct: fused on or other part: GST at the N-terminus followed by a hexaglycine spacer (pGEX-KG)
The experiment in a line: Filter binding assay, GST-CBS domain fusion. To be noted: single-site model. How it is done: as §2, §3

Experiment [12] addresses T12, AMPK-γ2 CBS1-2 (H383R) (Homo sapiens, UniProt Q9UGJ0, H383R).
T12 construct: the N-terminal pair (CBS1-2, residues 274-410); made in house; host or cells: E. coli BL21 (DE3)
The experiment in a line: Filter binding assay, GST-CBS domain fusion. The following applies: for Kd: single-site model. The protocol:
as §2, §3

Experiment [13] addresses T13, AMPK-γ2 CBS1-2 (T400N) (Homo sapiens, UniProt Q9UGJ0, T400N).
T13 construct: the N-terminal pair (CBS1-2, residues 274-410); made in house; host or cells: E. coli BL21 (DE3)
Put plainly: Filter binding assay, GST-CBS domain fusion. The following applies: for Kd: single-site model. The protocol: as §2, §3

Experiment [14] concerns the target T14, AMPK-γ2 CBS1-2 (WT) (Homo sapiens, UniProt Q9UGJ0).
T14 construct: the N-terminal pair (CBS1-2, residues 274-410); made in house; host or cells: E. coli BL21 (DE3)
The experiment in a line: Filter binding assay, GST-CBS domain fusion.
Text: as §4, §1, §3

T1 sequence (Q9UGJ0 274-410 R302Q): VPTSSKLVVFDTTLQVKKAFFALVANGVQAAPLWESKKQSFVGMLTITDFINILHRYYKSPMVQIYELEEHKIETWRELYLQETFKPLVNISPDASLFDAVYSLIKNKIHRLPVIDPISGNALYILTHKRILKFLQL
T2 sequence (Q9UGJ0 274-569): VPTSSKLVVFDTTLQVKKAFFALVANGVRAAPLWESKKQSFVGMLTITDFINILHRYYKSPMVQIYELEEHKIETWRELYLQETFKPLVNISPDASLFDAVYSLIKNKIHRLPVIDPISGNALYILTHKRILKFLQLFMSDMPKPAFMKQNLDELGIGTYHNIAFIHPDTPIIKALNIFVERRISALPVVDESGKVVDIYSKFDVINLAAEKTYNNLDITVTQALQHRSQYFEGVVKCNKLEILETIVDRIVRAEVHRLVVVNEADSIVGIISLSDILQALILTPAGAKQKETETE
T5 sequence (Q9UGJ0 274-569 R531G): as the sequence (Q9UGJ0 274-569) above, with R258G counted along it
T14 sequence (Q9UGJ0 274-410): as the sequence (Q9UGJ0 274-410 R302Q) above, with Q29R counted along it
T6 sequence (Q9UGJ0 274-569 T400N): as the sequence (Q9UGJ0 274-569) above, with T127N counted along it
T13 sequence (Q9UGJ0 274-410 T400N): as the sequence (Q9UGJ0 274-410 R302Q) above, with Q29R, T127N counted along it
T3 sequence (Q9UGJ0 274-569 H383R): as the sequence (Q9UGJ0 274-569) above, with H110R counted along it
T7 sequence (Q9UGJ0 274-569 R302Q): as the sequence (Q9UGJ0 274-569) above, with R29Q counted along it
T4 sequence (Q9UGJ0 with tags, fused parts or gaps INS350L): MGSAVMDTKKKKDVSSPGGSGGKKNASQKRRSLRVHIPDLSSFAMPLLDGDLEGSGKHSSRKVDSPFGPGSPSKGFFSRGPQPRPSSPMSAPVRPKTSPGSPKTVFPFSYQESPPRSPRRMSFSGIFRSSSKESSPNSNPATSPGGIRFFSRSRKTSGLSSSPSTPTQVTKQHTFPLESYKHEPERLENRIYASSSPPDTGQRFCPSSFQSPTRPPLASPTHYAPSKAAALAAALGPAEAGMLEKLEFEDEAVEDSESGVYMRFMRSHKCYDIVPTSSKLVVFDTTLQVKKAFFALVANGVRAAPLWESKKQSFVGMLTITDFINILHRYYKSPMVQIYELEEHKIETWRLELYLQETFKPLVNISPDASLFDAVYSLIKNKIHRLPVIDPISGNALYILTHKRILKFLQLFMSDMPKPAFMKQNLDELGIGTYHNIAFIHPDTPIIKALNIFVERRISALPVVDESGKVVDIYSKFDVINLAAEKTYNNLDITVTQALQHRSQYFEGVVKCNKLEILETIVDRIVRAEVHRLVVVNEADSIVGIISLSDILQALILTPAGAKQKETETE
T12 sequence (Q9UGJ0 274-410 H383R): as the sequence (Q9UGJ0 274-410 R302Q) above, with Q29R, H110R counted along it
T9 sequence (Q9UGI9 whole entry): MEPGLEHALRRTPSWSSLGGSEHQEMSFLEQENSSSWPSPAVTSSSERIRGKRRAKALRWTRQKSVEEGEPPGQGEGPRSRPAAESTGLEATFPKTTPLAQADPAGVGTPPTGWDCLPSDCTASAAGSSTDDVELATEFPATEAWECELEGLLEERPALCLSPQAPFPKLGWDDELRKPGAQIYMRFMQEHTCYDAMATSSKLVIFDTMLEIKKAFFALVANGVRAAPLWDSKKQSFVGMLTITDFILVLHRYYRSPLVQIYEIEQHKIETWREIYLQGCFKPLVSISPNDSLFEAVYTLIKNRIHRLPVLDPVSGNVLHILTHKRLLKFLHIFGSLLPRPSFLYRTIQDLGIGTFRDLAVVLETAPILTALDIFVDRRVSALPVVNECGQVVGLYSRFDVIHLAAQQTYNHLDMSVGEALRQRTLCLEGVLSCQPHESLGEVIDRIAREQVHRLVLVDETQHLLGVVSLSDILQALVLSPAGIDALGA
T9 sequence (P54645 whole entry partner): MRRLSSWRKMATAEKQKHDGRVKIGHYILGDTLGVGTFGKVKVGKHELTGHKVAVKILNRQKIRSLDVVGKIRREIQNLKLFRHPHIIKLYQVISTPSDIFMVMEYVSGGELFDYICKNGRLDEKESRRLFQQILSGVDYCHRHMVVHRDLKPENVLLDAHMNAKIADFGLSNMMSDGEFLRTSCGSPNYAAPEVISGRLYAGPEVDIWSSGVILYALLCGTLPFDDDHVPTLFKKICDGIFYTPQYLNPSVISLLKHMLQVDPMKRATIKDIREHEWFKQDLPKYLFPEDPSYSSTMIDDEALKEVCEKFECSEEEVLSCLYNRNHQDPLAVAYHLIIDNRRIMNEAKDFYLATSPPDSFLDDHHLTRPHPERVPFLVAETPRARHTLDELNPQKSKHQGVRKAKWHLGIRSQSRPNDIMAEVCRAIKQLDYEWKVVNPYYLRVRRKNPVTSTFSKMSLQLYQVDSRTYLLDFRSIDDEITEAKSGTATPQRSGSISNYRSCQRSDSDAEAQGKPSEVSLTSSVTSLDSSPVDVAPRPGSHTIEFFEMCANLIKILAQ
T9 sequence (P80386 2-270 partner limits assumed): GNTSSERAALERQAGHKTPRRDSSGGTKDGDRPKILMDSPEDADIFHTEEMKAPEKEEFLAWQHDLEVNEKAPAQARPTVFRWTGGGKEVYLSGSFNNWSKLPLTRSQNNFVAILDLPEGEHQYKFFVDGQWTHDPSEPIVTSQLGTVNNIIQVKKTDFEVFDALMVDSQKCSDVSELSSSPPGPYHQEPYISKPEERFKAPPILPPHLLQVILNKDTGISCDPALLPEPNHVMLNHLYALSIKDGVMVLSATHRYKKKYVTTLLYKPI
T8 sequence (P80385 whole entry): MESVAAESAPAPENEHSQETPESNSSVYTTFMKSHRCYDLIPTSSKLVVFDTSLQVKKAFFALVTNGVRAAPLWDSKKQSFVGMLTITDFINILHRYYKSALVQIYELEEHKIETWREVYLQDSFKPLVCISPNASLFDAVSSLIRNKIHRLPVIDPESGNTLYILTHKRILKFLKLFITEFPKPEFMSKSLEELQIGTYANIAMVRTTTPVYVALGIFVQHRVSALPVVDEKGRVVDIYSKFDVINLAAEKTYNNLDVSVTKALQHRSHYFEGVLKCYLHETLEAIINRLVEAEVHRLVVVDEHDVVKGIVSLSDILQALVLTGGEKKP
T8 sequence (P54645 whole entry partner): as the sequence (P54645 whole entry partner) above
T8 sequence (P80386 whole entry partner): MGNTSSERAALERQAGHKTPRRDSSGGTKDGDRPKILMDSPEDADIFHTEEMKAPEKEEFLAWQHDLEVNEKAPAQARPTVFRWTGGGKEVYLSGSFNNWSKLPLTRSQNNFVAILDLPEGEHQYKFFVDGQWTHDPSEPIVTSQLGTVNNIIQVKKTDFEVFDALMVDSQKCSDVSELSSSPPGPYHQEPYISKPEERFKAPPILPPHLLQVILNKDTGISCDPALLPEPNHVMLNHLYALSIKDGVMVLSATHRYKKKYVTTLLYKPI
T11 sequence (Q9UGJ0 with tags, fused parts or gaps INS350L): as the sequence (Q9UGJ0 with tags, fused parts or gaps INS350L) above
T10 sequence (P12268 112-232): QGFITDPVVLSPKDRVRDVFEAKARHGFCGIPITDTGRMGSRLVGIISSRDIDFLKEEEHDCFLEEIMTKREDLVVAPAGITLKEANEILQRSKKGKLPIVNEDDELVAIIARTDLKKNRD

On to `Nc1ncnc2c1ncn2[C@@H]1O[C@H](COP(=O)(O)O)[C@@H](O)[C@H]1O` [AMP, adenosine monophosphate], for which the “increase in Kd relative to wild type” value in [1] was 5.7 fold and 6 fold; in experiment [12] it was 28 fold; in experiment [13] it was 10 fold. Further, the Kd in [1] was 303 ± 42 µM; in experiment [2], 61 µM; in experiment [3], 725 ± 36 µM; in experiment [4] it was 130 ± 4 µM; in [5] it was 2800 ± 220 µM; in experiment [6], 1360 ± 47 µM. Also, the Kd was 158 ± 9 µM in experiment [7]; 440 µM in [10]; 63 ± 7 µM in experiment [11]; 1500 ± 210 µM in experiment [12]; 556 ± 56 µM in experiment [13]; 53 ± 5 µM in experiment [14]. In addition, the “h (Hill coefficient)” value is 2.2 ± 0.1 in experiment [2]; 1.8 ± 0.2 in [3]; 1.8 ± 0.1 in experiment [4]; 1.6 ± 0.2 in experiment [5]; 1.8 ± 0.1 in experiment [6]; 1.9 ± 0.2 in experiment [7]. For the same molecule, the “increase in B0.5 relative to wild type” value in [3] was determined as 12 fold; in experiment [5] it was 46 fold; in experiment [6], 22 fold. Also, in experiment [7], the “change in B0.5 relative to wild type” value was 2.6 fold. Further, the “stimulation by AMP” value in [8] was found to be 3.3 fold; in experiment [9], 1.5 fold. Moreover, the EC50 in [8] (immunoprecipitated from CCL13 cells, slow lysis, read-out: A0.5) was determined as 13 ± 2 µM; in [9] (approximate only, read-out: A0.5), 2 ± 2 µM. In [14] ([14C]AMP), the “maximal binding (Bmax)” value is given as 0.95±0.05 moles of AMP per mole of protein.

As to `Nc1ncnc2c1ncn2[C@@H]1O[C@H](COP(=O)(O)OP(=O)(O)OP(=O)(O)O)[C@@H](O)[C@H]1O` [ATP], the Kd was found to be 468 ± 86 µM in [1]; 257 ± 14 µM in [2]; 1470 ± 55 µM in [3]; 335 ± 28 µM in [4]; 2550 ± 230 µM in experiment [5]; 2000 ± 160 µM in experiment [6]. For the same molecule, the Kd amounted to 193 ± 25 µM in [7]; 202 ± 22 µM in [11]; 1570 ± 140 µM in [12]; 952 ± 55 µM in experiment [13]; 175 ± 17 µM in experiment [14] (single-site model, 5 mM MgCl2 included for ATP). Also, the “h (Hill coefficient)” value was 2.2 and 2.2 ± 0.2 in experiment [2]; 2.4 ± 0.2 in experiment [3]; 1.8 ± 0.2 in experiment [4]; 2.7 ± 0.5 in [5]; 1.7 ± 0.2 in experiment [6]; 1.3 and 1.3 ± 0.2 in experiment [7].
